Test results: US12364702B2, “Highly active sting protein agonist compound” (ADLAI NORTYE BIOPHARMA CO., LTD., priority 2018, dated 2025)

Columns and labels:
Assay type in all cases: cell-based
[1] = molecular target: T1, STING WT variant (Homo sapiens, UniProt Q86WV6); experiment: SEAP reporter assay in HEK-Blue ISG KO-STING cells transfected with STING WT variant (Method 1); settings: compound 7.8 uM, 24 h, SEAP signal vs 0.5% DMSO
T1 construct: host or cells: HEK-Blue ISG KO-STING cells (Invivogen, hkb-kostg)
Outline: (§1)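 HEK-Blue ISG KO-STING cells transfected with 1 ng STING variant plasmid for 24 h at 37 °C, then compound-treated 24 h (0.5% DMSO final). SEAP chemiluminescence read in supernatant; viability by CellTiter-Glo. Values are compound signal relative to 0.5% DMSO.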

[2] = molecular target: T2, STING HAQ variant (Homo sapiens, UniProt Q86WV6, G230A/R293Q/R71H); experiment: SEAP reporter assay in HEK-Blue ISG KO-STING cells transfected with STING HAQ variant (Method 1); settings: compound 7.8 uM, 24 h, SEAP signal vs 0.5% DMSO
T2 construct: host or cells: HEK-Blue ISG KO-STING cells (Invivogen, hkb-kostg)
Outline: as §1

[3] = molecular target: T1, STING WT variant; experiment: SEAP reporter assay in HEK-Blue ISG KO-STING cells transfected with STING WT variant (Method 2); parameters: key: ratio of compound SEAP signal to 0.5% DMSO; settings: 1 ng STING vector (WT variant), compound 2.5 uM, 24 h, SEAP signal vs 0.5% DMSO
From the text: (§2) Activation of STING can be determined using a SEAP reporter assay in HEK-Blue™ ISG KO-STING cells (Invivogen, cat #hkb-kostg) transfected with plasmids expressing STING variants (WT & HAQ) (referred to WO2017/175147A1). STING variants (WT & HAQ) vector were constructed based on STING-232H vector (Origene, RC208418). GFP vector (VT2069) was bought from Youbio. The detailed protocol as follows: HEK-Blue™ ISG KO-STING cells were harvest and seeding into 96 well plate and the final cell number was 0.8×10^5 cells/well. Transfections were prepared using Lipofectamine 2000 (Invitrogen, Cat #11668-027) following the manufacturer's instructions (Lipo2000/DNA=1/10), 20 ul of transfection suspension containing 1 ng (WT variant) or 0.0625 ng (HAQ variant) STING vector was added to cell culture plate and incubated at 37° C., 5% CO2 for 24 hours. After 24 hours incubation, compounds were added at proper concentration, the final DMSO concentration was 0.5%. After 24 h incubation, the supernatant was collected to detect SEAP signal using Great EscAPe SEAP chemiluminescence KIT (Clontech, cat #631738) and cells were collected to detect cell viability using CellTiter-Glo Luminescent Cell Viability Assay (Promega, cat #G7573) following the manufacturer's instructions. The data were described by the ratio of the stimulating signal of compounds to 0.5% DMSO.

[4] = molecular target: T2, STING HAQ variant; experiment: SEAP reporter assay in HEK-Blue ISG KO-STING cells transfected with STING HAQ variant (Method 2); parameters: key: ratio of compound SEAP signal to 0.5% DMSO; settings: 0.0625 ng STING vector (HAQ variant), compound 5 uM, 24 h, SEAP signal vs 0.5% DMSO
From the text: as §2

[5] = molecular target: STING (Homo sapiens, UniProt Q86WV6); experiment: IFN-β secretion from THP1 by STING activation (hIFNβ ELISA); settings: THP1 cells, 24 h incubation, IFN-β in supernatant, top dose set according to solubility; for EC50: read-out: hIFNβ ELISA (EC50)
Outline: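 THP1 cells (2×10^6 cells/ml) exposed 24 h at 37° C, 5% CO2 to 8-point, 3-fold compound dilutions, 0.2% DMSO final, top dose set by solubility. Secreted IFN-β in supernatant measured by human IFNβ ELISA; EC50 from curve fitting.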

T2 sequence (Q86WV6 whole entry R71H/G230A/R293Q): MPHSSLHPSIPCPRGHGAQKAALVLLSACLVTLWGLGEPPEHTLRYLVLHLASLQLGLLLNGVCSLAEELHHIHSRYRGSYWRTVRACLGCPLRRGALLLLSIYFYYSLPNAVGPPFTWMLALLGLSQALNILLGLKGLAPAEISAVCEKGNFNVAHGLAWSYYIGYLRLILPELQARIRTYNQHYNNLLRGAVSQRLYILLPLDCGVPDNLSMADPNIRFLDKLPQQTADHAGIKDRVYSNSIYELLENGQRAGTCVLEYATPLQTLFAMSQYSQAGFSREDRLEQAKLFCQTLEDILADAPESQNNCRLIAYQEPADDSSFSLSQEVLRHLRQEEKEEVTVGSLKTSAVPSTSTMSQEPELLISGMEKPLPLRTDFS
STING, sequence (Q86WV6 whole entry): as the sequence (Q86WV6 whole entry R71H/G230A/R293Q) above, with H71R, A230G, Q293R counted along it

| Compound | Fold change related to DMSO control WT [1] | Fold change related to DMSO control HAQ [2] | Fold change related to DMSO control WT [3] | Fold change related to DMSO control HAQ [4] | EC50 [5] | hIFNβ ELISA (EC50, μM) [5] |
| --- | --- | --- | --- | --- | --- | --- |
| CCn1nc(C)cc1C(=O)Nc1nc2cc(C(N)=O)cc(OCCCOC)c2n1CCC[C@H]1COc2cc(C(N)=O)cc3nc(NC(=O)c4cc(C)nn4CC)n1c23 [Example 1, (S)-3-(3-(5-Carbamoyl-2-(1-ethyl-3-methyl-1H-pyrazole-5-carboxamido)-7-(3-methoxypropoxy)-1H-benzo[d]imidazol-1-yl)propyl)-2-(1-ethyl-3-methyl-1H-pyrazole-5-carboxamido)-3,4-dihydro-5-oxa-1,2a-diazaacenaphthylene-7-carboxamide] | 2.29 | 36.93 | 13.65 | 24.13 | 2100 nM | – |
| CCn1nc(C)cc1C(=O)Nc1nc2cc(C(N)=O)cc(OCCCNC(=O)CN3CCOCC3)c2n1CCC[C@H]1COc2cc(C#N)cc3nc(NC(=O)c4cc(C)nn4CC)n1c23 [Example 47, (S)-1-(3-(7-cyano-2-(1-ethyl-3-methyl-1H-pyrazole-5-carboxamido)-3,4-dihydro-5-oxa-1,2a-diazaacenaphthylen-3-yl)propyl)-2-(1-ethyl-3-methyl-1H-pyrazole-5-carboxamido)-7-(3-(2-morpholinoacetamido)propoxy)-1H-benzo[d]imidazole-5-carboxamide] | – | – | 9.80 | 9.16 | – | inactive |
| CCn1nc(C)cc1C(=O)Nc1nc2cc(C#N)cc(OCCCNC(=O)CN3CCOCC3)c2n1CCC[C@H]1COc2cc(C(N)=O)cc3nc(NC(=O)c4cc(C)nn4CC)n1c23 [Example 46, (S)-3-(3-(5-cyano-2-(1-ethyl-3-methyl-1H-pyrazole-5-carboxamido)-7-(3-(2-morpholinoacetamido)propoxy)-1H-benzo[d]imidazol-1-yl)propyl)-2-(1-ethyl-3-methyl-1H-pyrazole-5-carboxamido)-3,4-dihydro-5-oxa-1,2a-diazaacenaphthylene-7-carboxamide] | – | – | 10.68 | 12.84 | > 6900 nM | – |
| CCn1nc(C)cc1C(=O)Nc1nc2cc(C(N)=O)cc(OCCCNC(=O)CN3CCC(OC)CC3)c2n1CCC[C@H]1COc2cc(C(N)=O)cc3nc(NC(=O)c4cc(C)nn4CC)n1c23 [Example 42, (S)-3-(3-(5-carbamoyl-2-(1-ethyl-3-methyl-1H-pyrazole-5-carboxamido)-7-(3-(2-(4-methoxypiperidin-1-yl)acetamido)propoxy)-1H-benzo[d]imidazol-1-yl)propyl)-2-(1-ethyl-3-methyl-1H-pyrazole-5-carboxamido)-3,4-dihydro-5-oxa-1,2a-diazaacenaphthylene-7-carboxamide] | – | – | 10.04 | 17.42 | 2200 nM | – |
| CCn1nc(C)cc1C(=O)Nc1nc2cc(C(N)=O)cc(OCCCN=C(N(C)C)N(C)C)c2n1CCC[C@H]1COc2cc(C(N)=O)cc3nc(NC(=O)c4cc(C)nn4CC)n1c23 [Example 56, (S)-3-(3-(7-(3-((bis(dimethylamino)methylene)amino)propoxy)-5-carbamoyl-2-(1-ethyl-3-methyl-1H-pyrazole-5-carboxamido)-1H-benzo[d]imidazol-1-yl)propyl)-2-(1-ethyl-3-methyl-1H-pyrazole-5-carboxamido)-3,4-dihydro-5-oxa-1,2a-diazaacenaphthylene-7-carboxamide] | – | – | 6.76 | 10.61 | 17300 nM | – |
| CCn1nc(C)cc1C(=O)Nc1nc2cc(C(N)=O)cc(OCCCOC)c2n1CCC[C@H]1COc2cc(C(N)=O)cc3nc(NC(=O)c4c(F)c(C)nn4CC)n1c23 [Example 50, (S)-3-(3-(5-carbamoyl-2-(1-ethyl-3-methyl-1H-pyrazole-5-carboxamido)-7-(3-methoxypropoxy)-1H-benzo[d]imidazol-1-yl)propyl)-2-(1-ethyl-4-fluoro-3-methyl-1H-pyrazole-5-carboxamido)-3,4-dihydro-5-oxa-1,2a-diazaacenaphthylene-7-carboxamide] | – | – | 8.92 | 32.38 | 1600 nM | – |
| CCn1nc(C)cc1C(=O)Nc1nc2cc(C(N)=O)cc(OCCCNC(=O)CN3CC(COC)C3)c2n1CCC[C@H]1COc2cc(C(N)=O)cc3nc(NC(=O)c4cc(C)nn4CC)n1c23 [Example 41, (S)-3-(3-(5-Carbamoyl-2-(1-ethyl-3-methyl-1H-pyrazole-5-carboxamido)-7-(3-(2-(3-(methoxymethyl)azetidin-1-yl)acetamido)propoxy)-1H-benzo[d]imidazol-1-yl)propyl)-2-(1-ethyl-3-methyl-1H-pyrazole-5-carboxamido)-3,4-dihydro-5-oxa-1,2a-diazaacenaphthylene-7-carboxamide] | – | – | 7.15 | 19.38 | 8800 nM | – |
| CCn1nc(C)cc1C(=O)Nc1nc2cc(C(N)=O)cc(OCCCO)c2n1CCC[C@H]1CN(C)c2cc(C(N)=O)cc3nc(NC(=O)c4cc(C)nn4CC)n1c23 [Example 57, (S)-4-(3-(5-carbamoyl-2-(1-ethyl-3-methyl-1H-pyrazole-5-carboxamido)-7-(3-hydroxypropoxy)-1H-benzo[d]imidazol-1-yl)propyl)-2-(1-ethyl-3-methyl-1H-pyrazole-5-carboxamido)-6-methyl-5,6-dihydro-4H-imidazo[1,5,4-de]quinoxaline-8-carboxamide] | – | – | 11.24 | 23.35 | 2600 nM | – |
| CCn1nc(C)cc1C(=O)Nc1nc2cc(C(N)=O)cc(OCCCNC(=O)CN3CC(OC)C3)c2n1CCC[C@H]1COc2cc(C(N)=O)cc3nc(NC(=O)c4cc(C)nn4CC)n1c23 [Example 43, (S)-3-(3-(5-carbamoyl-2-(1-ethyl-3-methyl-1H-pyrazole-5-carboxamido)-7-(3-(2-(3-methoxyazetidin-1-yl)acetamido)propoxy)-1H-benzo[d]imidazol-1-yl)propyl)-2-(1-ethyl-3-methyl-1H-pyrazole-5-carboxamido)-3,4-dihydro-5-oxa-1,2a-diazaacenaphthylene-7-carboxamide] | – | – | 7.12 | 19.89 | 4600 nM | – |
